Here are results for 3 compounds from patent US5001128A, “HMG-COA reductase inhibitors” (Rhone-Poulenc Rorer Pharmaceuticals Inc., priority 1989, dated 1991).

Molecules are shown by their SMILES.

In test [1] the target is HMG-CoA reductase. Nature of the test: HMGR Screen (inhibition of solubilized rat liver HMG-CoA reductase, [14C] HMG-CoA). The test is classed as biochemical. The following applies: solubilized rat liver microsomal enzyme; 20 μM HMG-CoA; 37° C.; pH 7.0; read-out: IC50 (Micromoles per liter), HMGR Screen. The method, then: The first method used (designated HMGR Screen) was as follows. Male rats were acclimated to an alternate 12 hour light-dark cycle for a period of 2-3 weeks. The animals, weighing 180-230 g, were fed ad libitum a rat chow containing 2% cholestyramine for 5 days prior to sacrifice at the mid-dark period. Liver microsomes were prepared and HMGR enzyme was solubilized from the microsomes by freeze-thaw manipulation in high ionic strength buffer. The enzyme preparation was stored at -80° C. in 300 μl portion samples. Prior to use, the enzyme was activated at 37° C. for 30 minutes in a reaction mixture. The reaction mixture contained in a volume of 240 μl:0.14M potassium phosphate buffer (pH 7.0); 0.18M KCl; 3.5 mM EDTA; 10 mM dithiothreitol; 0.1 mg/ml BSA; 30,000 cpm of [^14 C] HMG-CoA; 20 μM HMG-CoA, and 200 μg of solubilized enzyme with and without inhibitors (in 10 μDMSO). After 5 minutes incubation at 37° C. the reaction was initiated with 0.2 mM NADPH. The final assay volume was 300 μl. The reaction then was terminated with 100 μl of 1N HCl. After an additional incubation for 15 minutes at 37° C. to allow for complete lactonization of the product, the mixture was diluted with 3 ml GDW. […] After the addition of 10 ml of Aquasol , radioactivities of the samples were measured in a scintillation counter.
(In general: Liver microsomes are a subcellular fraction often used to study metabolism.)

Test [2] deals with cholesterol synthesis in rat liver. The test is described as follows: Ex-Vivo Fasted (cholesterol synthesis from [14C] sodium acetate in liver slices of orally dosed fasted rats). The following applies: 1 mg/kg oral in 0.5% methocel, rats fasted 16 hours, livers removed after one hour. The method, then: The second method (designated Ex-Vivo Fasted) used was as follows. Rats of 170-210 g were maintained on a low cholesterol diet for one week prior to use. Drugs (identified in Table I) were given orally in 0.5% methocel to fasted (fasted for 16 hours) rats. After one hour the rats were decapitated and their livers removed and transferred to chilled oxygenated Kreb's-Ringer-bicarbonate buffer (pH 7.4). The livers were then chopped into 0.5 mm slices using a McIlwain tissue chopper, and were suspended in the same buffer. Aliquots of the suspension containing 100 mg tissue were pipetted to culture tubes which contained [^14 C] sodium acetate (2μ Ci, 1 mM). The tubes were gassed with 95% O2 /5 % CO2, capped and incubated at 37° C. in a shaking water bath at 150 oscillation/min. for two hours. The final assay volume was 1.0 ml. After incubation the reaction was stopped by the addition of 1.0 ml of 15% KOH in ethanol, and the internal standard ^3 H-cholesterol was added. The tubes were recapped and the samples were saponified at 75° C. for two hours with periodic mixing. Subsequently an aliquot was removed for protein analysis using Bio-Rad's standard kit, and the remainder of the saponified samples was extracted with 10 ml of petroleum ether for 30 minutes. […] After visualization with iodine the cholesterol spots were cut and counted with liquid scintillation fluid.

Consider `O=C1C[C@@H](O)C[C@H](/C=C/C2=C(c3ccc(F)cc3)C=C(c3ccccc3)C23CCCC3)O1` (relative stereo) [Lactone Form of Compound of Example I Step 9] [Trans-(E)-6-[2-[2-(4-fluorophenyl)-4-phenyl-spiro[4,4]-nona-1,3-dien-1-yl]ethenyl]-3,4,5,6-tetrahydro-4-hydroxy-2H-pyran-2-one], for which, in test [1], the half-inhibitory concentration (IC50) came out at 70 nM. As to `O=C1C[C@@H](O)C[C@H](/C=C/C2=C(c3ccc(F)cc3)C=C(c3ccccc3)C23CCCC3)O1` (relative stereo) [Compound of Example I Step 9, Trans-(E)-6-[2-[2-(4-fluorophenyl)-4-phenyl-spiro[4,4]-nona-1,3-dien-1-yl]ethenyl]-3,4,5,6-tetrahydro-4-hydroxy-2H-pyran-2-one], the half-inhibitory concentration (IC50) in test [1] came out at 0.9 nM. `O=C(O)C[C@H](O)C[C@H](O)/C=C/C1=C(c2ccc(F)cc2)C=C(c2ccccc2)C12CCCC2` (relative stereo) yielded an inhibition at 1 mg/kg in test [2] of 65 ± 4%.

As usually defined, the IC50 is the concentration that inhibits the measured activity by half. As a reminder, the inhibition is the share of the control response that was lost under treatment. A lower inhibition goes with a response near the control.
